US9352013B2, “Uses of bremelanotide in therapy for female sexual dysfunction” (Palatin Technologies, Inc., priority 2012, dated 2016)
Read-outs that look alike come from different tables or passages of the source. Marks after values point to notes of the source that are not given here.

Experiments:
[1] = Example 1: ambulatory blood pressure monitoring; assay type: in vivo, human; settings: for SBP: treatment group difference (from placebo) in mean change from single-blind placebo / DBP: treatment group difference (from placebo) in mean change from single-blind placebo: in mmHg (unit assumed); for HR-BP Product: treatment group difference (from placebo) in mean change from single-blind placebo: in mmHg·bpm (unit assumed); for Pulse: treatment group difference (from placebo) in mean change from single-blind placebo: in bpm (unit assumed)
Protocol: Ambulatory blood pressure monitoring was conducted following both placebo and randomized treatment group in-clinic administrations. Three periods of ambulatory blood pressure monitoring were included, the first period was from before to 24 hours after a single, in-clinic dose of placebo (to establish a baseline); the second and third periods occurred from before to 24 hours after each of 2 single, in-clinic doses of double-blind treatment, administered within 14 days of each other. Blood samples for pharmacokinetic analysis were collected before and at 0.5, 1.0, and 2.0 hours after each in-clinic bremelanotide single-dose treatment (double-blind only), to permit analysis of concentration-response relationships.
Mean changes in blood pressure were characterized in all subjects based on sequential supervised dosing of single-blind subcutaneous placebo and two doses of randomized study drug. The primary analysis for mean changes was the difference between treatment groups in the change from single-blind placebo to randomized drug (Visit 2 vs. Visits 5/7). There were between 86 to 100 subjects in each dose group.
Although there were an increased number of outliers for maximal changes from baseline in systolic blood pressure in drug-treated patients, the duration of these events was quite limited. The interrogation interval during ambulatory blood pressure monitoring assessments of 15 minutes allowed definition of the maximal duration of such excursions. […] The clinical significance of such changes, if any, is small.

[2] = Phase 2 intranasal trials: plasma concentration after 10 mg intranasal dose; assay type: in vivo; settings: female, human, inhaled or intranasal, premenopausal, 30 minutes post dosing
Protocol: In the bremelanotide premenopausal arm, 42.5% of the subjects were discontinued due to hypertension, nausea, vomiting or myalgia. Subjects received a 10 mg intranasal dose of bremelanotide, with premenopausal subjects determined to have a mean plasma concentration of 88.5±51.9 ng/mL and a % CV of 58.6, and postmenopausal subjects determined to have a mean plasma concentration of 93.2±68.5 ng/mL and a % CV of 73.5. The minimum and maximum plasma concentration levels for all women at thirty minutes post dose range from 0.0 ng/mL to 207.0 ng/mL.
In the intranasal study, premenopausal women self-administered a 10 mg intranasal dose.

[3] = Subcutaneous trial in males: vomiting; assay type: in vivo, human; settings: males
Protocol: In a trial in males, 1 of 6 subjects at the 5-mg dose level, 1 of 6 subjects at the 7.5 mg dose level, and 3 of 6 subjects at the 10-mg dose level experienced vomiting that was mild or moderate in intensity and delayed 6 to 15 hours.

[4] = 1.25 mg SC, interval 8-24 h, V5
[5] = 1.25 mg SC, interval 8-24 h, V7
[6] = 1.75 mg SC, interval 0-24 h, V5
[7] = 1.75 mg SC, interval 0-24 h, V7
[8] = 1.75 mg SC, interval 8-24 h, V5
[9] = 1.75 mg SC, interval 8-24 h, V7

CCCC[C@H](NC(C)=O)C(=O)N[C@H]1CC(=O)NCCCC[C@@H](C(=O)O)NC(=O)[C@H](Cc2c[nH]c3ccccc23)NC(=O)[C@H](CCCNC(=N)N)NC(=O)[C@@H](Cc2ccccc2)NC(=O)[C@H](Cc2c[nH]cn2)NC1=O [bremelanotide, Ac-Nle-cyclo(-Asp-His-D-Phe-Arg-Trp-Lys)-OH]
SBP: treatment group difference (from placebo) in mean change from single-blind placebo ([1]; 1.25 mg SC, interval 4-8 h, V5): 1.4
HR-BP Product: treatment group difference (from placebo) in mean change from single-blind placebo ([1]; 1.25 mg SC, interval 4-8 h, V5): −621.0*
Pulse: treatment group difference (from placebo) in mean change from single-blind placebo ([1]; 1.25 mg SC, interval 4-8 h, V7): −6.5*
DBP: treatment group difference (from placebo) in mean change from single-blind placebo ([1]; 1.25 mg SC, interval 4-8 h, V7): 0.9
SBP: treatment group difference (from placebo) in mean change from single-blind placebo ([1]; 1.25 mg SC, interval 4-8 h, V7): 1.3*
HR-BP Product: treatment group difference (from placebo) in mean change from single-blind placebo ([1]; 1.25 mg SC, interval 4-8 h, V7): −669.7*
Pulse: treatment group difference (from placebo) in mean change from single-blind placebo [1, 4]: −1.5
DBP: treatment group difference (from placebo) in mean change from single-blind placebo [1, 4]: 1.4*
SBP: treatment group difference (from placebo) in mean change from single-blind placebo [1, 4]: 0.7
HR-BP Product: treatment group difference (from placebo) in mean change from single-blind placebo [1, 4]: −127.4
Pulse: treatment group difference (from placebo) in mean change from single-blind placebo [1, 5]: −0.7
DBP: treatment group difference (from placebo) in mean change from single-blind placebo [1, 5]: 1.7*
SBP: treatment group difference (from placebo) in mean change from single-blind placebo [1, 5]: 1.5*
HR-BP Product: treatment group difference (from placebo) in mean change from single-blind placebo [1, 5]: 4.2
Systolic blood pressure shifts: ΔSBP >10 mmHg, Duration >30 minutes ([1]; 1.75 mg SC): 0
Systolic blood pressure shifts: ΔSBP >15 mmHg, Duration >30 minutes ([1]; 1.75 mg SC): 0
Pulse: treatment group difference (from placebo) in mean change from single-blind placebo ([1]; 1.75 mg SC, interval 0-4 h, V5): −4.6*
DBP: treatment group difference (from placebo) in mean change from single-blind placebo ([1]; 1.75 mg SC, interval 0-4 h, V5): 3.2*
SBP: treatment group difference (from placebo) in mean change from single-blind placebo ([1]; 1.75 mg SC, interval 0-4 h, V5): 3.1*
HR-BP Product: treatment group difference (from placebo) in mean change from single-blind placebo ([1]; 1.75 mg SC, interval 0-4 h, V5): −305.9
Pulse: treatment group difference (from placebo) in mean change from single-blind placebo ([1]; 1.75 mg SC, interval 0-4 h, V7): −4.7*
DBP: treatment group difference (from placebo) in mean change from single-blind placebo ([1]; 1.75 mg SC, interval 0-4 h, V7): 2.6*
SBP: treatment group difference (from placebo) in mean change from single-blind placebo ([1]; 1.75 mg SC, interval 0-4 h, V7): 2.5*
HR-BP Product: treatment group difference (from placebo) in mean change from single-blind placebo ([1]; 1.75 mg SC, interval 0-4 h, V7): −375.4*
Pulse: treatment group difference (from placebo) in mean change from single-blind placebo [1, 6]: −2.2*
DBP: treatment group difference (from placebo) in mean change from single-blind placebo [1, 6]: 1.9*
SBP: treatment group difference (from placebo) in mean change from single-blind placebo [1, 6]: 1.6
HR-BP Product: treatment group difference (from placebo) in mean change from single-blind placebo [1, 6]: −139.1
Pulse: treatment group difference (from placebo) in mean change from single-blind placebo [1, 7]: −2.2*
DBP: treatment group difference (from placebo) in mean change from single-blind placebo [1, 7]: 1.8*
SBP: treatment group difference (from placebo) in mean change from single-blind placebo [1, 7]: 1.3
HR-BP Product: treatment group difference (from placebo) in mean change from single-blind placebo [1, 7]: −184.1
Pulse: treatment group difference (from placebo) in mean change from single-blind placebo ([1]; 1.75 mg SC, interval 4-8 h, V5): −6.6*
DBP: treatment group difference (from placebo) in mean change from single-blind placebo ([1]; 1.75 mg SC, interval 4-8 h, V5): 2.3*
SBP: treatment group difference (from placebo) in mean change from single-blind placebo ([1]; 1.75 mg SC, interval 4-8 h, V5): 2.1
HR-BP Product: treatment group difference (from placebo) in mean change from single-blind placebo ([1]; 1.75 mg SC, interval 4-8 h, V5): −608.1*
Pulse: treatment group difference (from placebo) in mean change from single-blind placebo ([1]; 1.75 mg SC, interval 4-8 h, V7): −6.6*
DBP: treatment group difference (from placebo) in mean change from single-blind placebo ([1]; 1.75 mg SC, interval 4-8 h, V7): 2.2*
SBP: treatment group difference (from placebo) in mean change from single-blind placebo ([1]; 1.75 mg SC, interval 4-8 h, V7): 2.2
HR-BP Product: treatment group difference (from placebo) in mean change from single-blind placebo ([1]; 1.75 mg SC, interval 4-8 h, V7): −624.5*
Pulse: treatment group difference (from placebo) in mean change from single-blind placebo [1, 8]: −0.8
DBP: treatment group difference (from placebo) in mean change from single-blind placebo [1, 8]: 1.4*
SBP: treatment group difference (from placebo) in mean change from single-blind placebo [1, 8]: 0.9
HR-BP Product: treatment group difference (from placebo) in mean change from single-blind placebo [1, 8]: −23.7
Pulse: treatment group difference (from placebo) in mean change from single-blind placebo [1, 9]: −0.5
DBP: treatment group difference (from placebo) in mean change from single-blind placebo [1, 9]: 1.4
SBP: treatment group difference (from placebo) in mean change from single-blind placebo [1, 9]: 0.6
HR-BP Product: treatment group difference (from placebo) in mean change from single-blind placebo [1, 9]: −31.3
Cmax at 30 min ([2]; read-out: Cmax / plasma concentration, mean): 88.5 ± 51.9 ng/mL
Cmax at 30 min ([2]; read-out: Cmax, maximum): 207 ng/mL
Cmax at 30 min ([2]; read-out: Cmax, median): 81.1 ng/mL
Subjects who experienced vomiting ([3]; 7.5 mg dose level): 1 of 6
Subjects who experienced vomiting ([3]; 5-mg dose level): 1 of 6
Subjects who experienced vomiting ([3]; 10-mg dose level): 3 of 6
